Literature values as cited in patent publication US20240390346A1, “COMPOSITIONS FOR A DIETARY SUPPLEMENT TO MANAGE SENESCENT CELLS” (Neurohacker Collective, LLC, priority 2023, published 2024).

Tested on: senescent cells
Details: literature studies

SMILES | senolytic / senomorphic activity
O=c1c(O)c(-c2ccc(O)c(O)c2)oc2cc(O)cc(O)c12 [quercetin] | both senolytic and senomorphic
O=c1c(O)c(-c2ccc(O)c(O)c2)oc2cc(O)ccc12 [Fisetin] | both senolytic and senomorphic activity
COc1cc(/C=C/C(=O)N2CCC=CC2=O)cc(OC)c1OC [Piperlongumine] | senolytic activity
O=c1cc(-c2ccc(O)c(O)c2)oc2cc(O)cc(O)c12 [Luteolin] | senolytic activity
